In patent US9758529B2, “Fused dihydro-4H-pyrazolo[5,1-C][1,4]oxazinyl compounds and analogs for treating CNS disorders” (Sunovion Pharmaceuticals Inc., priority 2015, dated 2017):

Test system: mice
Experiment: Neuropharmacological Assay (SmartCube)
Type: in vivo
Details: i.p. 15 min before behavioral test; 3 doses, most efficacious dose(s) presented
Text: Neurosci. […] As reported in Roberds, because psychiatric diseases generally result from disorders of cell-cell communication or circuitry, intact systems are useful in detecting improvement in disease-relevant endpoints. These endpoints are typically behavioral in nature, often requiring human observation and interpretation. To facilitate testing of multiple compounds for behavioral effects relevant to psychiatric disease, PsychoGenics, Inc. (Tarrytown, N.Y., “PGI”) developed SmartCube™, an automated system in which behaviors of compound-treated mice are captured by digital video and analyzed with computer algorithms. […] PGI Analytical Systems uses data from SmartCube™ to compare the behavioral signature of a test compound to a database of behavioral signatures obtained using a large set of diverse reference compounds. (The composition of the database as well as validation of the method is further described in Roberds). In this way, the neuropharmacological effects of a test compound can be predicted by similarity to major classes of compounds, such as antipsychotics, anxiolytics and antidepressants.
The SmartCube™ system produces an activity signature indicating the probability that the activity of the test compound at the administered dose matches a given class of neuropharmacological agents. (See, e.g., Roberds, FIGS. 2 and 3). The test compound is simultaneously compared against multiple classes of agents; thus, a separate probability is generated for each behavioral effect measured (e.g., anxiolytic activity, analgesic activity, etc.). In Table 2 and 2B, these probabilities are reported for each behavioral effect measured as follows:
where LOQ is the limit of quantification.
Provided compounds were dissolved in a mixture of Pharmasolve™ (N-methyl-2-pyrrolidone), polyethylene glycol and propylene glycol, and were injected i.p. 15 min. before the behavioral test. For each compound, injections were administered at 3 different doses. For each behavioral effect measured, results for the most efficacious dose(s) are presented.

| Structure (SMILES) | AD: ADHD (probability of class match) | AG: analgesic (probability of class match) | AX: anxiolytic (probability of class match) | CE: cognitive enhancer (probability of class match) | DP: anti-depressant (probability of class match) | HA: hallucinogen (probability of class match) | MS: mood stabilizer (probability of class match) | PS: anti-psychotic (probability of class match) | SD: sedative hypnotic (probability of class match) | UN: uncharacterized CNS activity (probability of class match) | XG: anxiogenic (probability of class match) |
| --- | --- | --- | --- | --- | --- | --- | --- | --- | --- | --- | --- |
| CNC[C@H]1OCCn2nc3ccccc3c21.Cl [Compound 2, (R)-(3,4-dihydro-1H-[1,4]oxazino[4,3-b]indazol-1-yl)-N-methylmethanaminium chloride] | ++ (5%≦ ++ <25%) | + (LOQ≦ + <5%) | ++ (5%≦ ++ <25%) | + (LOQ≦ + <5%) | ++++ (50%≦ ++++) | ++++ (50%≦ ++++) | + (LOQ≦ + <5%) | + (LOQ≦ + <5%) | + (LOQ≦ + <5%) | + (LOQ≦ + <5%) | + (LOQ≦ + <5%) |
| CN(C)C[C@@H]1OCCn2nc3ccccc3c21 [Compound 3, (S)-(3,4-dihydro-1H-[1,4]oxazino[4,3-b]indazol-1-yl)-N,N-dimethylmethanaminium chloride] | + (LOQ≦ + <5%) | + (LOQ≦ + <5%) | + (LOQ≦ + <5%) | + (LOQ≦ + <5%) | ++ (5%≦ ++ <25%) | + (LOQ≦ + <5%) | + (LOQ≦ + <5%) | ++ (5%≦ ++ <25%) | + (LOQ≦ + <5%) | +++ (25%≦ +++ <50%) | + (LOQ≦ + <5%) |
| CN(C)C[C@H]1OCCn2nc3ccccc3c21.Cl [Compound 4, (R)-(3,4-dihydro-1H-[1,4]oxazino[4,3-b]indazol-1-yl)-N,N-dimethylmethanaminium chloride] | ++ (5%≦ ++ <25%) | ++ (5%≦ ++ <25%) | + (LOQ≦ + <5%) | ++ (5%≦ ++ <25%) | ++++ (50%≦ ++++) | ++ (5%≦ ++ <25%) | + (LOQ≦ + <5%) | + (LOQ≦ + <5%) | + (LOQ≦ + <5%) | ++ (5%≦ ++ <25%) | + (LOQ≦ + <5%) |
| CNCC1OCCn2nc3ccc(Cl)cc3c21.Cl (stereo not shown) [Compound 5, 1-(9-chloro-3,4-dihydro-1H-[1,4]oxazino[4,3-b]indazol-1-yl)-N-methylmethanaminium chloride] | + (LOQ≦ + <5%) | ++ (5%≦ ++ <25%) | + (LOQ≦ + <5%) | + (LOQ≦ + <5%) | ++ (5%≦ ++ <25%) | + (LOQ≦ + <5%) | + (LOQ≦ + <5%) | + (LOQ≦ + <5%) | + (LOQ≦ + <5%) | + (LOQ≦ + <5%) | + (LOQ≦ + <5%) |
| CN(C)CC1OCCn2nc3ccc(Cl)cc3c21.Cl (stereo not shown) [Compound 6, 1-(9-chloro-3,4-dihydro-1H-[1,4]oxazino[4,3-b]indazol-1-yl)-N,N-dimethylmethanaminium chloride] | + (LOQ≦ + <5%) | ++ (5%≦ ++ <25%) | ++ (5%≦ ++ <25%) | ++ (5%≦ ++ <25%) | +++ (25%≦ +++ <50%) | + (LOQ≦ + <5%) | + (LOQ≦ + <5%) | ++ (5%≦ ++ <25%) | + (LOQ≦ + <5%) | + (LOQ≦ + <5%) | + (LOQ≦ + <5%) |
| CNCC1OCCn2nc3ccc(F)cc3c21 (stereo not shown) [Compound 7, 1-(9-fluoro-3,4-dihydro-1H-[1,4]oxazino[4,3-b]indazol-1-yl)-N-methylmethanaminium chloride] | + (LOQ≦ + <5%) | ++ (5%≦ ++ <25%) | + (LOQ≦ + <5%) | + (LOQ≦ + <5%) | ++++ (50%≦ ++++) | + (LOQ≦ + <5%) | + (LOQ≦ + <5%) | + (LOQ≦ + <5%) | + (LOQ≦ + <5%) | + (LOQ≦ + <5%) | + (LOQ≦ + <5%) |
| CN(C)CC1OCCn2nc3ccc(F)cc3c21.Cl (stereo not shown) [Compound 8, 1-(9-fluoro-3,4-dihydro-1H-[1,4]oxazino[4,3-b]indazol-1-yl)-N,N-dimethylmethanaminium chloride] | + (LOQ≦ + <5%) | ++ (5%≦ ++ <25%) | ++ (5%≦ ++ <25%) | ++ (5%≦ ++ <25%) | +++ (25%≦ +++ <50%) | + (LOQ≦ + <5%) | + (LOQ≦ + <5%) | ++ (5%≦ ++ <25%) | + (LOQ≦ + <5%) | + (LOQ≦ + <5%) | ++ (5%≦ ++ <25%) |
| Cl.NCC1OCCn2nc3ccc(F)cc3c21 (stereo not shown) [Compound 9, (9-fluoro-3,4-dihydro-1H-[1,4]oxazino[4,3-b]indazol-1-yl)methanaminium chloride] | ++ (5%≦ ++ <25%) | ++ (5%≦ ++ <25%) | + (LOQ≦ + <5%) | ++ (5%≦ ++ <25%) | ++ (5%≦ ++ <25%) | + (LOQ≦ + <5%) | + (LOQ≦ + <5%) | + (LOQ≦ + <5%) | + (LOQ≦ + <5%) | +++ (25%≦ +++ <50%) | + (LOQ≦ + <5%) |
| CNCC1OCCn2nc3cc(F)ccc3c21 (stereo not shown) [Compound 10, 1-(8-fluoro-3,4-dihydro-1H-[1,4]oxazino[4,3-b]indazol-1-yl)-N-methylmethanaminium] | + (LOQ≦ + <5%) | ++ (5%≦ ++ <25%) | ++ (5%≦ ++ <25%) | + (LOQ≦ + <5%) | ++++ (50%≦ ++++) | + (LOQ≦ + <5%) | + (LOQ≦ + <5%) | ++ (5%≦ ++ <25%) | + (LOQ≦ + <5%) | + (LOQ≦ + <5%) | ++ (5%≦ ++ <25%) |
| CN(C)CC1OCCn2nc3cc(F)ccc3c21.Cl (stereo not shown) [Compound 11, 1-(8-fluoro-3,4-dihydro-1H-[1,4]oxazino[4,3-b]indazol-1-yl)-N,N-dimethylmethanaminium] | + (LOQ≦ + <5%) | + (LOQ≦ + <5%) | + (LOQ≦ + <5%) | + (LOQ≦ + <5%) | +++ (25%≦ +++ <50%) | + (LOQ≦ + <5%) | + (LOQ≦ + <5%) | ++ (5%≦ ++ <25%) | ++ (5%≦ ++ <25%) | + (LOQ≦ + <5%) | + (LOQ≦ + <5%) |
| Cl.NCC1OCCn2nc3cc(F)ccc3c21 (stereo not shown) [Compound 12, (8-fluoro-3,4-dihydro-1H-[1,4]oxazino[4,3-b]indazol-1-yl)methanaminium] | + (LOQ≦ + <5%) | + (LOQ≦ + <5%) | + (LOQ≦ + <5%) | + (LOQ≦ + <5%) | + (LOQ≦ + <5%) | + (LOQ≦ + <5%) | + (LOQ≦ + <5%) | + (LOQ≦ + <5%) | + (LOQ≦ + <5%) | + (LOQ≦ + <5%) | + (LOQ≦ + <5%) |
